From patent US6852673B2, “Herbicidal pyridine compounds” (BASF Aktiengesellschaft, priority 1998, dated 2005)

Key:
Format in all cases: in vivo
Glycine max (GLXMA) = assay: Pre-emergence herbicidal evaluation, soyabeans
From the text: (§1) The pre-emergence herbicidal activity of the compounds of the present invention is exemplified by the following test in which the seeds of a variety of monocotyledonous and dicotyledonous plants are seperately mixed with potting soil and planted on top of approximately one inch of soil in separate pots. After planting, the pots are sprayed with the selected aqueous acetone solution containing test compound in sufficient quantity to provide the equivalent of about 0.0125 to 0.4 kg per hectare of test compound per pot. The treated pots are then placed on greenhouse benches, watered and cared for in accordance with conventional greenhouse procedures. From 2 to 4 weeks after treatment, the tests are terminated and each pot is examined and rated according to the rating system set forth below.

Hordeum vulgare (HORVW) = assay: Pre-emergence herbicidal evaluation, winter barley
From the text: as §1

Oryza sativum (ORYSA) = assay: Pre-emergence herbicidal evaluation, rice
From the text: as §1

[1] = test system: Triticum aestivum (TRZAW); assay: Pre-emergence herbicidal evaluation, winter wheat
From the text: as §1

Zea mays (ZEAMX) = assay: Pre-emergence herbicidal evaluation, maize
From the text: as §1

[2] = test system: Abutilon theophrasti (ABUTH); assay: Pre-emergence herbicidal evaluation, velvetleaf
From the text: as §1

[3] = test system: Ambrosia artemiisifolia (AMBEL); assay: Pre-emergence herbicidal evaluation, ragweed
From the text: as §1

Galium aparine (GALAP) = assay: Pre-emergence herbicidal evaluation, cleaver
From the text: as §1

[4] = test system: Ipomoea hederacea (IPOHE); assay: Pre-emergence herbicidal evaluation, morning glory
From the text: as §1

Lamium purpureum (LAMPU) = assay: Pre-emergence herbicidal evaluation, purple deadnettle
From the text: as §1

[5] = test system: Matricaria inodora (MATIN); assay: Pre-emergence herbicidal evaluation, mayweed
From the text: as §1

Solanum nigrum (SOLNI) = assay: Pre-emergence herbicidal evaluation, black nightshade
From the text: as §1

Stellaria media (STEME) = assay: Pre-emergence herbicidal evaluation, chickweed
From the text: as §1

[6] = test system: Alopecurus myosuroides (ALOMY); assay: Pre-emergence herbicidal evaluation, black grass
From the text: as §1

[7] = test system: Digitaria sanguinalis (DIGSA); assay: Pre-emergence herbicidal evaluation, large crabgrass
From the text: as §1

Cc1cc(OCC(F)(F)C(F)(F)F)nc(Oc2cc(C(F)(F)F)nn2C)c1 [Example 7]
selectivity in soybeans (Glycine max (GLXMA)): quite selective | GLXMA rating (Glycine max (GLXMA); dose 0.013 kg/ha): 0 (0 - No effect) | GLXMA rating (Glycine max (GLXMA); dose 0.025 kg/ha): 0 (0 - No effect) | GLXMA rating (Glycine max (GLXMA); dose 0.1 kg/ha): 2 (2 - Slight effect) | GLXMA rating (Glycine max (GLXMA); dose 0.4 kg/ha): 3 (3 - Moderate effect) | HORVW rating (Hordeum vulgare (HORVW); dose 0.013 kg/ha): 0 (0 - No effect) | HORVW rating (Hordeum vulgare (HORVW); dose 0.025 kg/ha): 0 (0 - No effect) | HORVW rating (Hordeum vulgare (HORVW); dose 0.1 kg/ha): 2 (2 - Slight effect) | HORVW rating (Hordeum vulgare (HORVW); dose 0.4 kg/ha): 3 (3 - Moderate effect) | ORYSA rating (Oryza sativum (ORYSA); dose 0.013 kg/ha): 0 (0 - No effect) | ORYSA rating (Oryza sativum (ORYSA); dose 0.025 kg/ha): 1 (1 - Trace effect) | ORYSA rating (Oryza sativum (ORYSA); dose 0.1 kg/ha): 1 (1 - Trace effect) | ORYSA rating (Oryza sativum (ORYSA); dose 0.4 kg/ha): 2 (2 - Slight effect) | TRZAW rating ([1]; dose 0.013 kg/ha): 0 (0 - No effect) | TRZAW rating ([1]; dose 0.025 kg/ha): 0 (0 - No effect) | TRZAW rating ([1]; dose 0.1 kg/ha): 1 (1 - Trace effect) | TRZAW rating ([1]; dose 0.4 kg/ha): 2 (2 - Slight effect) | selectivity in maize (Zea mays (ZEAMX)): good selectivity | ZEAMX rating (Zea mays (ZEAMX); dose 0.013 kg/ha): 0 (0 - No effect) | ZEAMX rating (Zea mays (ZEAMX); dose 0.025 kg/ha): 0 (0 - No effect) | ZEAMX rating (Zea mays (ZEAMX); dose 0.1 kg/ha): 0 (0 - No effect) | ZEAMX rating (Zea mays (ZEAMX); dose 0.4 kg/ha): 2 (2 - Slight effect) | ABUTH rating ([2]; dose 0.025 kg/ha): 0 (0 - No effect) | ABUTH rating ([2]; dose 0.1 kg/ha): 1 (1 - Trace effect) | ABUTH rating ([2]; dose 0.4 kg/ha): 7 (7 - Good herbicidal effect) | AMBEL rating ([3]; dose 0.025 kg/ha): 1 (1 - Trace effect) | AMBEL rating ([3]; dose 0.1 kg/ha): 6 (6 - Herbicidal effect) | AMBEL rating ([3]; dose 0.4 kg/ha): 9 (9 - Complete kill) | GALAP rating (Galium aparine (GALAP); dose 0.013 kg/ha): 0 (0 - No effect) | GALAP rating (Galium aparine (GALAP); dose 0.025 kg/ha): 0 (0 - No effect) | GALAP rating (Galium aparine (GALAP); dose 0.1 kg/ha): 1 (1 - Trace effect) | GALAP rating (Galium aparine (GALAP); dose 0.4 kg/ha): 2 (2 - Slight effect) | IPOHE rating ([4]; dose 0.025 kg/ha): 1 (1 - Trace effect) | IPOHE rating ([4]; dose 0.1 kg/ha): 2 (2 - Slight effect) | IPOHE rating ([4]; dose 0.4 kg/ha): 5 (5 - Definite injury) | LAMPU rating (Lamium purpureum (LAMPU); dose 0.025 kg/ha): 6 (6 - Herbicidal effect) | LAMPU rating (Lamium purpureum (LAMPU); dose 0.1 kg/ha): 8 (8 - Approaching complete kill) | LAMPU rating (Lamium purpureum (LAMPU); dose 0.4 kg/ha): 9 (9 - Complete kill) | MATIN rating ([5]; dose 0.013 kg/ha): 0 (0 - No effect) | MATIN rating ([5]; dose 0.025 kg/ha): 3 (3 - Moderate effect) | MATIN rating ([5]; dose 0.1 kg/ha): 8 (8 - Approaching complete kill) | MATIN rating ([5]; dose 0.4 kg/ha): 9 (9 - Complete kill) | SOLNI rating (Solanum nigrum (SOLNI); dose 0.013 kg/ha): 0 (0 - No effect) | SOLNI rating (Solanum nigrum (SOLNI); dose 0.025 kg/ha): 1 (1 - Trace effect) | SOLNI rating (Solanum nigrum (SOLNI); dose 0.1 kg/ha): 4 (4 - Injury) | SOLNI rating (Solanum nigrum (SOLNI); dose 0.4 kg/ha): 9 (9 - Complete kill) | STEME rating (Stellaria media (STEME); dose 0.025 kg/ha): 5 (5 - Definite injury) | STEME rating (Stellaria media (STEME); dose 0.1 kg/ha): 7 (7 - Good herbicidal effect) | STEME rating (Stellaria media (STEME); dose 0.4 kg/ha): 8 (8 - Approaching complete kill) | ALOMY rating ([6]; dose 0.013 kg/ha): 0 (0 - No effect) | ALOMY rating ([6]; dose 0.025 kg/ha): 1 (1 - Trace effect) | ALOMY rating ([6]; dose 0.1 kg/ha): 4 (4 - Injury) | ALOMY rating ([6]; dose 0.4 kg/ha): 9 (9 - Complete kill) | DIGSA rating ([7]; dose 0.013 kg/ha): 0 (0 - No effect) | DIGSA rating ([7]; dose 0.025 kg/ha): 1 (1 - Trace effect) | DIGSA rating ([7]; dose 0.1 kg/ha): 6 (6 - Herbicidal effect) | DIGSA rating ([7]; dose 0.4 kg/ha): 8 (8 - Approaching complete kill)
